Source: patent US20260014109A1, “VERY LONG CHAIN FATTY ACIDS FOR TREATMENT AND ALLEVIATION OF DISEASES” (EPAX NORWAY AS, priority 2019, published 2026)

Legend:
[1] = test system: human dermal fibroblast cell line (ATCC PCS-201-012); assay: Scratch assay (in-vitro wound healing model) in human dermal fibroblasts (Example 5); format: cell-based; conditions: 10 μM, after 24 hours, control albumin in PBS
Procedure: (§1) A commercial human dermal fibroblast cell line (ATCC PCS-201-012) was cultured in Dulbecco's modified Eagle's medium according to the method described by Vuong et al2.
ATCC cells were seeded in wells with 2 mL culture media supplemented with 1, 2 and 4 μM Lipid composition A. Control was albumin in PBS. At ˜90-100% confluency, a scratch was created, and wells were thereafter photographed at several time points up to 24 hours. The migration of cells into the scratch/closure of wound over time was examined in light microscopy and images were taken. The scratch/wound closure rate was measured by % confluency in scratch opening (the higher values the better closure of wound).
Cells were seeded in wells with 2 mL culture media supplemented with 10 μM Lipid composition B (6 replicates). Control was albumin in PBS. At ˜90-100% confluency, a scratch was created, and wells were thereafter photographed at several time points up to 24 hours. […]
FIG. 29 provides the effect of Lipid composition B on closure rate of scratch. […] Cells were then scratched and cell migration into wound was followed at different time points (0 and 24 hours shown), using Fiji/ImageJ software, as illustrated in figure A. Scratch size was analyzed as mean percentage decline (calculated from each well's original size at 0 hours to size measured at 24 hours (n=6, results presented in figure B).

ATCC human skin cells = assay: Content of C26:6n-3 in ATCC human skin cells after supplementation of the culture medium (Example 5, 1B); format: cell-based; conditions: media with 10 and 20 μM for 4 days; increase from 0.7; p=0.001 (ANOVA)
Procedure: as §1
ATCC cells were cultivated in a media supplemented with 10 and 20 μM Lipid composition B for 4 days before harvesting for determination of fatty acid composition. It was made a pooled sample of three replicates per group prior to lipid extraction by the method by Folch et al1.

ATCC cells = assay: Proliferation assay in ATCC human dermal fibroblasts (Example 5); format: cell-based; conditions: incubation until about 50% confluency, albumin controls
Procedure: as §1
The proliferation assay measures the density/number of cells in culture by fluorescence staining of nucleic acids.
FIG. 28 provides the measurement of cell proliferation after incubation with Lipid composition B until about 50% confluency. Results are presented as the mean±SEM (n=4). The asterisks (*) indicate significant difference between groups. Control 1 and 2 represent albumin equivalent to the albumin concentration in the 20 µM Lipid composition B substrate.

[2] = test system: skin cells (keratocytes) from salmon shells; assay: Cellular content of C26:6n-3 in primary skin cells (keratocytes) from Atlantic salmon (Example 5, 2); format: cell-based; conditions: 20 µM group; 0% in the control group
Procedure: Primary cell cultures of skin cells (keratocytes) from salmon shells were isolated from freshwater Atlantic salmon. The shells were carefully placed in plate wells and incubated at 13° C. in growth media (L-15) supplemented with 10 μM or 20 μM of the Lipid composition B (26:6n-3) or 25 ng/ml fibroblast growth factor (FGF) as a positive control. Negative control was albumin in PBS.

[3] = test system: skin cells (keratocytes) from salmon shells; assay: Cell migration from salmon shells (Example 5, 2); format: cell-based, Atlantic salmon; design: cell migration from salmon shells, first time point: dose or concentration left out as unconfirmed
Procedure: Primary cell cultures of skin cells (keratocytes) from salmon shells were isolated from freshwater Atlantic salmon. […] Negative control was albumin in PBS.
The second day after isolation of shells, all wells with the different treatments were inspected under microscope and images taken.
Salmon shells were plucked from freshwater salmon and placed in wells with culture medium, incubated at 13° C. without CO2 and inspected for cell migration the following days. […] Control was albumin in PBS. (n=6). The scale of the y—axis represents no cell migration (0%) to cell migration from all shells (100%). Different letters denote significant differences (p≤0,05).

content of C26:6n-3 in ATCC human skin cells (ATCC human skin cells): 5.5 % of total FAs
cellular content of the C26:6n-3 fatty acid in salmon skin cells [2]: 1.4%
Structure (SMILES): CC/C=C\C/C=C\C/C=C\C/C=C\C/C=C\C/C=C\CCCCCCC(=O)O [Lipid composition B, C26:6n-3]
wound closure rate by reduced size of wound diameter compared to control [1]: tendencies to increased wound closure rate
cell count (proliferation) compared to controls (ATCC cells): significantly higher cell count
cell migration in salmon skin cell culture relative to control ([3]; 10 µM): significantly increased cell migration
cell migration from salmon shells, last time point ([3]; low dose (10 µM)): most effect on cell migration
cell migration from salmon shells, first time point ([3]; relative to albumin control): similar, immediate increased cell migration effect as the FGF
